The supplement of paper PMC11061612

Legend:
Assay in all cases: Bliss excess, mean over the matrix (fraction); higher = more synergy
A375 (Melanoma) = test system: A375 (Melanoma)
In short: (§1)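 Cell lines in DMEM/F12 or RPMI with 10% FBS were plated in 1536-well plates, held 24 hours at 37°C, 5% CO2, then given two-drug dose matrices for 72 hours (DMSO typically 0.2%). Viability was read by CellTiter-Glo 2.0 luminescence and scaled as inhibition from 0 (vehicle wells) to 1 (blank wells). Combination Emax is the second-highest inhibition in the matrix; Bliss excess is observed combination effect minus expected EA + EB − EA·EB, EA and EB being single-agent effects.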

NCI-H2452 (Mesothelioma) = test system: NCI-H2452 (Mesothelioma)
In short: as §1

[1] = test system: IGROV-1 (Ovarian Carcinoma)
In short: as §1

[2] = test system: MDA-MB-175-VII (Breast Carcinoma)
In short: as §1

C32 (Melanoma) = test system: C32 (Melanoma)
In short: as §1

SK-N-DZ (Neuroblastoma) = test system: SK-N-DZ (Neuroblastoma)
In short: as §1

[3] = test system: KNS-62 (Squamous Cell Lung Carcinoma)
In short: as §1

[4] = test system: COR-L105 (Lung Adenocarcinoma)
In short: as §1

[5] = test system: TK (B-Cell Non-Hodgkin's Lymphoma)
In short: as §1

DK-MG (Glioblastoma) = test system: DK-MG (Glioblastoma)
In short: as §1

[6] = test system: NCI-H2170 (Squamous Cell Lung Carcinoma)
In short: as §1

[7] = test system: L-363 (Plasma Cell Myeloma)
In short: as §1

[8] = test system: BT-474 (Breast Carcinoma)
In short: as §1

MG-63 (Osteosarcoma) = test system: MG-63 (Osteosarcoma)
In short: as §1

[9] = test system: RS4-11 (B-Lymphoblastic Leukemia)
In short: as §1

[10] = test system: CAL-85-1 (Breast Carcinoma)
In short: as §1

[11] = test system: OCI-M1 (Acute Myeloid Leukemia)
In short: as §1

HT-144 (Melanoma) = test system: HT-144 (Melanoma)
In short: as §1

[12] = test system: SBC-5 (Small Cell Lung Carcinoma)
In short: as §1

[13] = test system: NCI-H2023 (Non-Small Cell Lung Carcinoma)
In short: as §1

| Structure (SMILES) | Bliss excess (A375 (Melanoma)) | Bliss excess (NCI-H2452 (Mesothelioma)) | Bliss excess [1] | Bliss excess [2] | Bliss excess (C32 (Melanoma)) | Bliss excess (SK-N-DZ (Neuroblastoma)) | Bliss excess [3] | Bliss excess [4] | Bliss excess [5] | Bliss excess (DK-MG (Glioblastoma)) | Bliss excess [6] | Bliss excess [7] | Bliss excess [8] | Bliss excess (MG-63 (Osteosarcoma)) | Bliss excess [9] | Bliss excess [10] | Bliss excess [11] | Bliss excess (HT-144 (Melanoma)) | Bliss excess [12] | Bliss excess [13] |
| --- | --- | --- | --- | --- | --- | --- | --- | --- | --- | --- | --- | --- | --- | --- | --- | --- | --- | --- | --- | --- |
| CN(C)CCCOc1ccc(-c2ccc3ncc4c(c3c2)n(C2CCOCC2)c(=O)n4C)cn1 [AZD0156] + C=CCn1c(=O)c2cnc(Nc3ccc(N4CCN(C)CC4)cc3)nc2n1-c1cccc(C(C)(C)O)n1 [AZD1775] (first compound max 1 µM, partner max 1 µM) | -0.0275 | -0.0253 | -0.0826 | -0.0589 | -0.0348 | -0.0179 | -0.0373 | -0.0414 | -0.0045 | -0.0003 | 0.0914 | 0.0057 | -0.0647 | -0.0428 | -0.0405 | -0.0155 | 0.0077 | -0.0268 | -0.018 | 0.0007 |
| CN(C)CCCOc1ccc(-c2ccc3ncc4c(c3c2)n(C2CCOCC2)c(=O)n4C)cn1 [AZD0156] + CCN(CCO)CCCOc1ccc2c(Nc3cc(CC(=O)Nc4cccc(F)c4)[nH]n3)ncnc2c1 [AZD2811] (first compound max 1 µM, 7x7, partner max 1 µM) | -0.0112 | -0.042 | -0.0527 | -0.018 | -0.0213 | 0.0526 | -0.0213 | -0.0457 | 0.0495 | 0.0081 | -0.0136 | 0.0096 | -0.0423 | -0.0079 | 0.0512 | -0.0409 | 0.042 | 0.0066 | 0.0184 | 0.0066 |
| CN(C)CCCOc1ccc(-c2ccc3ncc4c(c3c2)n(C2CCOCC2)c(=O)n4C)cn1 [AZD0156] + C[C@@H]1COCCN1C2=NC(=NC(=C2)C3(CC3)[S@](=N)(=O)C)C4=C5C=CNC5=NC=C4 [AZD6738] (first compound max 1 µM, 7x7, partner max 10 µM) | 0.0378 | -0.0547 | -0.0187 | -0.0122 | -0.0323 | 0.031 | -0.0343 | -0.0779 | 0.0289 | 0.0346 | 0.0947 | 0.0767 | -0.0416 | -0.0056 | -0.0192 | 0.0042 | 0.0352 | -0.0484 | 0.0116 | -0.021 |
| CN(C)CCCOc1ccc(-c2ccc3ncc4c(c3c2)n(C2CCOCC2)c(=O)n4C)cn1 [AZD0156] + O=C(c1cc(Cc2n[nH]c(=O)c3ccccc23)ccc1F)N1CCN(C(=O)C2CC2)CC1 [Olaparib] (first compound max 3 µM, partner max 3 µM) | 0.0591 | 0.12 | 0.0623 | -0.0365 | -0.035 | -0.0533 | 0.0435 | 0.0527 | 0.0213 | 0.0012 | 0.0947 | -0.0073 | -0.0189 | 0.0183 | 0.104 | -0.039 | 0.17 | 0.0767 | 0.0732 | 0.0234 |
| C=CCn1c(=O)c2cnc(Nc3ccc(N4CCN(C)CC4)cc3)nc2n1-c1cccc(C(C)(C)O)n1 [AZD1775] + C[C@@H]1COCCN1C2=NC(=NC(=C2)C3(CC3)[S@](=N)(=O)C)C4=C5C=CNC5=NC=C4 [AZD6738] (first compound max 1 µM, partner max 10 µM) | 0.0154 | -0.0518 | -0.0348 | -0.0184 | 0.0073 | 0.0094 | 0.0257 | -0.0411 | 0.0031 | -0.0342 | -0.0253 | 0.0474 | -0.0425 | 0.0271 | 0.0188 | -0.0511 | 0.0327 | -0.0482 | 0.0037 | -0.0674 |
| C=CCn1c(=O)c2cnc(Nc3ccc(N4CCN(C)CC4)cc3)nc2n1-c1cccc(C(C)(C)O)n1 [AZD1775] + O=C(c1cc(Cc2n[nH]c(=O)c3ccccc23)ccc1F)N1CCN(C(=O)C2CC2)CC1 [Olaparib] (first compound max 1 µM, partner max 10 µM) | -0.0161 | -0.0608 | -0.0797 | -0.0351 | -0.0271 | -0.0122 | -0.0293 | -0.0881 | -0.0318 | -0.054 | -0.008 | -0.0153 | -0.0611 | -0.0548 | -0.0192 | -0.055 | -0.0374 | -0.0681 | -0.0435 | -0.039 |
| CCN(CCO)CCCOc1ccc2c(Nc3cc(CC(=O)Nc4cccc(F)c4)[nH]n3)ncnc2c1 [AZD2811] + C=CCn1c(=O)c2cnc(Nc3ccc(N4CCN(C)CC4)cc3)nc2n1-c1cccc(C(C)(C)O)n1 [AZD1775] (first compound max 1 µM, partner max 1 µM) | 0.0143 | -0.0387 | -0.0034 | -0.0427 | -0.0354 | -0.0289 | -0.0339 | -0.0415 | 0.0069 | 0.0373 | 0.051 | -0.0312 | -0.0442 | -0.0052 | -0.0523 | -0.0258 | 0.058 | 0.0516 | 0.114 | 0.0031 |
| CCN(CCO)CCCOc1ccc2c(Nc3cc(CC(=O)Nc4cccc(F)c4)[nH]n3)ncnc2c1 [AZD2811] + C[C@@H]1COCCN1C2=NC(=NC(=C2)C3(CC3)[S@](=N)(=O)C)C4=C5C=CNC5=NC=C4 [AZD6738] (first compound max 1 µM, 7x7, partner max 10 µM) | -0.0573 | -0.0756 | -0.0453 | -0.0307 | -0.0803 | -0.0507 | -0.0546 | -0.0679 | -0.0108 | -0.0146 | -0.0191 | -0.0485 | -0.0291 | 0.011 | 0.0023 | 0.0098 | 0.0009 | -0.0711 | -0.0236 | -0.0555 |
| CCN(CCO)CCCOc1ccc2c(Nc3cc(CC(=O)Nc4cccc(F)c4)[nH]n3)ncnc2c1 [AZD2811] + O=C(c1cc(Cc2n[nH]c(=O)c3ccccc23)ccc1F)N1CCN(C(=O)C2CC2)CC1 [Olaparib] (first compound max 1 µM, 7x7, partner max 10 µM) | 0.0039 | -0.0675 | 0.0329 | -0.0012 | -0.0056 | -0.0696 | -0.0171 | -0.0311 | 0.0322 | 0.0024 | 0.0044 | 0.0025 | -0.0079 | 0.0197 | 0.0327 | -0.0246 | 0.0337 | -0.0266 | 0.033 | -0.0737 |
| CN(CCO)CC[C@H](CSc1ccccc1)Nc1ccc(S(=O)(=O)NC(=O)c2ccc(N3CCC([C@@H](O)c4ccccc4-c4ccc(Cl)cc4)CC3)cc2)cc1S(=O)(=O)C(F)(F)F [AZD4320] + C=CCn1c(=O)c2cnc(Nc3ccc(N4CCN(C)CC4)cc3)nc2n1-c1cccc(C(C)(C)O)n1 [AZD1775] (first compound max 1 µM, partner max 1 µM) | 0.0133 | 0.0257 | 0.0505 | 0.0035 | 0.108 | 0.0351 | -0.0543 | 0.0129 | 0.0407 | -0.0789 | 0.0131 | 0.032 | -0.0232 | -0.0262 | 0.0285 | 0.0019 | 0.0479 | 0.0392 | 0.0264 | -0.0108 |
| CN(CCO)CC[C@H](CSc1ccccc1)Nc1ccc(S(=O)(=O)NC(=O)c2ccc(N3CCC([C@@H](O)c4ccccc4-c4ccc(Cl)cc4)CC3)cc2)cc1S(=O)(=O)C(F)(F)F [AZD4320] + CN(C)CCCOc1ccc(-c2ccc3ncc4c(c3c2)n(C2CCOCC2)c(=O)n4C)cn1 [AZD0156] (first compound max 1 µM, 7x7, partner max 1 µM) | -0.0357 | -0.0287 | -0.0848 | -0.0322 | -0.0182 | 0.0238 | -0.0566 | -0.031 | 0.0083 | -0.0539 | -0.0054 | -0.0005 | -0.057 | -0.0816 | -0.0209 | -0.0472 | -0.0094 | -0.0032 | -0.0481 | -0.0922 |
| COc1nnc2ccc(N3CCC(c4ccc(OCCN5CCN(C)C(=O)[C@H]5C)cc4)CC3)nn12 [AZD5153] + CN(CC[C@H](CSC1=CC=CC=C1)NC2=C(C=C(C=C2)S(=O)(=O)NC(=O)C3=CC=C(C=C3)N4CCC(CC4)[C@H](C5=CC=CC=C5C6=CC=C(C=C6)Cl)O)S(=O)(=O)C(F)(F)F)CCO [AZD4320] (first compound max 1 µM, 7x7, partner max 1 µM) | 0.0183 | – | 0.0077 | – | 0.0176 | -0.0212 | – | – | -0.0154 | 0.0382 | 0.0175 | – | 0.0941 | – | 0.0211 | – | -0.0095 | 0.0439 | -0.0012 | – |
| Cc1c2c(nn1C)CSCc1cc(n(C)n1)CSc1cc(c3ccccc3c1)OCCCc1c(C(=O)O)n(C)c3c-2c(Cl)ccc13 [AZD5991] + CN(C)CCCOc1ccc(-c2ccc3ncc4c(c3c2)n(C2CCOCC2)c(=O)n4C)cn1 [AZD0156] (first compound max 1 µM, 7x7, partner max 1 µM) | 0.0053 | 0.0366 | -0.0297 | 0.0076 | -0.0076 | 0.0063 | -0.0201 | -0.0139 | 0.0046 | -0.0518 | -0.0237 | 0.0235 | 0.0064 | – | -0.0177 | -0.0542 | -0.0097 | -0.0352 | 0.0387 | -0.0069 |
| Cc1c2c(nn1C)CSCc1cc(n(C)n1)CSc1cc(c3ccccc3c1)OCCCc1c(C(=O)O)n(C)c3c-2c(Cl)ccc13 [AZD5991] + Cc1cc2ncnn2cc1Nc1ncc2c(n1)n(C1CCOCC1)c(=O)n2C [AZD7648] (first compound max 1 µM, 7x7, partner max 10 µM) | -0.0244 | -0.0065 | -0.103 | -0.0055 | -0.0308 | -0.0564 | 0.0266 | -0.0645 | -0.0046 | -0.101 | -0.0144 | 0.0345 | -0.0305 | -0.0265 | – | -0.055 | -0.001 | -0.0131 | -0.0447 | -0.0423 |
| CC(=O)c1c(C)c2cnc(Nc3ccc(N4CCNCC4)cn3)nc2n(C2CCCC2)c1=O [Palbociclib] + CN(CC[C@H](CSC1=CC=CC=C1)NC2=C(C=C(C=C2)S(=O)(=O)NC(=O)C3=CC=C(C=C3)N4CCC(CC4)[C@H](C5=CC=CC=C5C6=CC=C(C=C6)Cl)O)S(=O)(=O)C(F)(F)F)CCO [AZD4320] (first compound max 10 µM, 7x7, partner max 1 µM) | -0.0569 | – | -0.0143 | – | -0.0713 | 0.0814 | – | – | 0.0858 | -0.0456 | -0.0809 | – | -0.108 | – | -0.0308 | – | -0.014 | -0.0774 | -0.0715 | – |
